Legend:
Sodium Channel = test: Veratridine-induced Sodium Channel Activity Inhibitory Effect (suppression of veratridine-induced depolarization in synaptosomes, Rhodamine 6G); assay type: biochemical, Wistar rats; settings: compound 0.1 μM; rat brain synaptosomes
Method: Veratridine-induced Sodium Channel Activity Inhibitory Effect
The membrane potential of the synaptosomes prepared from the brain membrane of Wistar rats (male, 10 to 12 weeks old) was measured by the method of Aiuchi et al. [T. Aiuchi et al: Biochimi. Biophys. Acta.

T-type Ca^2+ channel = test: T-Type Calcium Channel Inhibitory Effect (whole-cell patch clamp, hippocampal CA1 pyramidal cells); assay type: cell-based, Wistar rats; settings: suppression of peak current after one minute of application; rat hippocampal CA1 pyramidal cells; read-out: T-type Ca^Z+ channel inhibitory effect IC50
Method: T-Type Calcium Channel Inhibitory Effect
The hippocampal CA1 pyramidal cells were isolated from Wistar rats (male/female, 1 week old) in accordance with the method of Takahashi et al. [K. Takahashi et al.; J. Pharmacol. Exp. Ther., 256, 169 (1991)] and the T-type calcium current under conditions of a fixed membrane potential was measured using the whole-cell configuration of the pach clamp technique. The effects of the compounds were evaluated from the rate of suppression of the peak current after one minute of application using the concentration clamp method.

Dopamine D2 receptor = biological target: T1, Dopamine D2 receptor (Rattus norvegicus, UniProt P61169); test: Dopamine D2 Receptor Blocking Effect ([3H] raclopride binding, striatum membrane fraction); set-up: species or system Wister male rats; settings: 1.0 nM [3H] raclopride, 25° C., one hour
T1 construct: membrane fraction prepared from the striatum of Wister male rats; from tissue; host or cells: striatum of male Wistar rats (6 weeks old), membrane fraction
T1 sequence (P61169 whole entry): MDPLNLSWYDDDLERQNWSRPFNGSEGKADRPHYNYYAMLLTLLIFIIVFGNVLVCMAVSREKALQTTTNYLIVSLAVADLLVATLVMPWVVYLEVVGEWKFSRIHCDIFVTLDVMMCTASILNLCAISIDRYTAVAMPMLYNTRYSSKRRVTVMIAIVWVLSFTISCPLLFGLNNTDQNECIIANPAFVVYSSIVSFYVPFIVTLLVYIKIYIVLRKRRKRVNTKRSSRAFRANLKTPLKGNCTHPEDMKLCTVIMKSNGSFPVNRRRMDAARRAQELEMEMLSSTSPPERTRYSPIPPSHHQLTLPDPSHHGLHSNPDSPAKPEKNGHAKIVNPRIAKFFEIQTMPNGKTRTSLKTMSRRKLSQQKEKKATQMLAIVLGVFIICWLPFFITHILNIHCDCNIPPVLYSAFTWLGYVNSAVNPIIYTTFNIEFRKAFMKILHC
Method: Dopamine D2 Receptor Blocking Effect
57 μl of the membrane fraction prepared from the striatum of Wister male rats (6 weeks old) was incubated in a buffer at 25° C. for one hour along with the compound and 1.0 nM [^3 H) raclopride. A GF/C glass filter (0.1% polyethylene imine treatment) was used for separation of B/F, then the radioactivity was measured by a beta plate and the effect of the compound was evaluated.

[1] = acute toxicity, death rate up to 24 hours after intravenous injection; settings: mouse, in vivo, ddY mice (male, 6 weeks old), read-out: 50% lethal dosage LD50 of acute toxicity
Text: The compounds of the present invention are low in toxicity.

dopamine D2 receptors = settings: due to its action of blocking dopamine D2 receptors; cited from earlier work

| Compound | Anti-veratridine effect (inhibiting rate %) (Sodium Channel) [%] | further results |
| --- | --- | --- |
| O=C(CN1CCC(c2ccc(Oc3ccccc3)cc2)CC1)N[C@@H]1C[C@H]1c1ccccc1 (relative stereo) [Compound 56, N-(trans-2-phenyl-1-cyclopropyl)-4-(4-phenoxyphenyl)-1-piperidinacetamide] | 38.4 |  |
| O=C(CN1CCC(c2ccc(Cc3ccc(F)cc3)cc2)CC1)N[C@@H]1C[C@H]1c1ccccc1 (relative stereo) [Compound 57, N-(trans-2-phenyl-1-cyclopropyl)-4-[4-(4-fluorophenyl)methylphenyl]-1-piperidinacetamide] | 32.8 | IC50 (T-type Ca^2+ channel): 1.5 µM |
| O=C(CCCN1CC=C(c2ccc(Oc3ccccc3)cc2)CC1)NC1CCCOc2ccccc21 (stereo not drawn) [Compound 29, 5-[4-(4-(4-phenoxyphenyl)-1,2,3,6-tetrahydropyridine-1-yl)butyrylamino]-2,3,4,5-tetrahydro-1-benzoxepine] | 27.9 |  |
| O=C(CCCN1CCC(c2ccc(Oc3ccccc3)cc2)CC1)NC1CCCOc2ccccc21 (stereo not drawn) [Compound 30, 5-[4-(4-(4-phenoxyphenyl)piperidin-1-yl)butyrylamino]-2,3,4,5-5 tetrahydro-1-benzoxepine] | 21.4 |  |
| O=C(CCCN1CC=C(c2ccc(Oc3ccccc3)cc2)CC1)Nc1ccccc1Cc1ccccc1 [Compound 32, 2-benzyl-1-[4-(4-(4-phenoxyphenyl)-1,2,3,6-tetrahydropyridin-1-yl)butyrylamino]benzene] | 35.7 | IC50 (Dopamine D2 receptor): > 1 µM |
| O=C(CCCN1CCC(c2ccc(Oc3ccccc3)cc2)CC1)Nc1ccccc1Cc1ccccc1 [Compound 33, 2-benzyl-1-[4-(4-(4-phenoxyphenyl)piperidin-1-yl)butyrylamino]benzene] | 37.5 |  |
| O=C(CCCN1CCN(c2ccc(Cc3ccc(F)cc3)cc2)CC1)Nc1ccccc1Cc1ccccc1 [Compound 34, 2-benzyl-1-[4-(4-(4-(4-fluorophenyl)methylphenyl)piperazin-1-yl)butyrylamino]benzene] | 50.2 | IC50 (T-type Ca^2+ channel): 10 µM; IC50 (Dopamine D2 receptor): 7 µM |
| O=C(CCCN1CCC(c2ccc(Cc3ccc(F)cc3)cc2)CC1)Nc1ccccc1Cc1ccccc1 [Compound 35, 2-benzyl-1-[4-(4-(4-(4-fluorophenyl)methylphenyl)piperidin-1-yl)butyrylamino]benzene] | 40.6 |  |
| O=C(CCCCCN1CC=C(c2ccc(Oc3ccccc3)cc2)CC1)Nc1ccccc1Cc1ccccc1 [Compound 36, 2-benzyl-1-[6-(4-(4-phenoxyphenyl)-1,2,3,6-tetrahydropyridine-1-yl)hexanoylamino]benzene] | 55.1 | IC50 (Dopamine D2 receptor): > 1 µM |
| O=C(CCCCCN1CCC(c2ccc(Oc3ccccc3)cc2)CC1)Nc1ccccc1Cc1ccccc1 [Compound 37, 2-benzyl-1-[6-(4-(4-phenoxyphenyl)piperidin-1-yl)hexanoylamino]benzene] | 62 | IC50 (Dopamine D2 receptor): > 1 µM |
| O=C(CCCCCN1CCN(c2ccc(Cc3ccc(F)cc3)cc2)CC1)Nc1ccccc1Cc1ccccc1 [Compound 38, 2-benzyl-1-[6-(4-(4-(4-fluorophenyl)methylphenyl)piperazin-1-yl)hexanoylamino]benzene] | 56.6 |  |
| Cc1cccc(Cc2ccccc2)c1NC(=O)CN1CCC(c2ccc(Oc3ccccc3)cc2)CC1 [Compound 39, 2-benzyl-1-[2-(4-(4-phenoxyphenyl)piperidin-1-yl)acetylamino]-6-methylbenzene] | 16.6 |  |
| Cc1cccc(Cc2ccccc2)c1NC(=O)CCCN1CCC(c2ccc(Oc3ccccc3)cc2)CC1 [Compound 41, 2-benzyl-1-[4-(4-(4-phenoxyphenyl)piperidin-1-yl)butyrylamino]-6-methylbenzene] | 30.4 |  |
| Cc1cccc(Cc2ccccc2)c1NC(=O)CCCN1CCN(c2ccc(Cc3ccc(F)cc3)cc2)CC1 [Compound 42, 2-benzyl-1-[4-(4-(4-(4-fluorophenyl)methylphenyl)piperazin-1-yl)butyrylamino]-6-methylbenzene] | 16.6 |  |
| Cc1cccc(C)c1NC(=O)CCCN1CCC(c2ccc(Oc3ccccc3)cc2)CC1 [Compound 47, 2,6-dimethyl-1-[4-(4-(4-phenoxyphenyl)piperidin-1-yl)butyrylamino]benzene] | 17.3 |  |
| Cc1cc(C)c(NC(=O)CCCN2CCC(c3ccc(Cc4ccc(F)cc4)cc3)CC2)c(C)c1 [Compound 49, 2,4,6-trimethyl-1-[4-(4-(4-(4-fluorophenyl)methylphenyl)piperidine-1-yl)butyrylamino]benzene] | 17 |  |
| O=C(CCCN1CCN(c2ccc(Cc3ccc(F)cc3)cc2)CC1)N1CCCOc2ccccc21 [Compound 53, 5-[4-(4-(4-(4-fluorophenyl)methylphenyl)piperazin-1-yl)butyryl]-2,3,4,5-tetrahydro-1,5-benzoxazepine] | 33.8 | IC50 (T-type Ca^2+ channel): 2.8 µM; IC50 (Dopamine D2 receptor): 1.26 µM; LD50 at 24 h [1]: 46.5 mg/kg |
| O=C(CCCN1CCC(c2ccc(Cc3ccc(F)cc3)cc2)CC1)N1CCCOc2ccccc21 [Compound 54, 5-[4-(4-(4-(4-fluorophenyl)methylphenyl)piperidin-1-yl)butyryl]-2,3,4,5-tetrahydro-1,5-benzoxazepine] | 29.4 |  |
| O=C(CN1CCC(c2ccc(Oc3ccccc3)cc2)CC1)Nc1ccccc1 [Compound 59, N-phenyl-4-(4-phenoxyphenyl)-1-piperidinacetamide] | 32.9 |  |
| O=C(CN1CCC(c2ccc(Cc3ccc(F)cc3)cc2)CC1)Nc1ccccc1 [Compound 60, N-phenyl-4-[4-(4-fluorophenyl)methylphenyl]-1-piperidinacetamide] | 33.9 |  |
| O=C(NCCN1CCC(c2ccc(Oc3ccccc3)cc2)CC1)c1ccccc1 [Compound 62, 1-(2-benzoylaminoethyl)-4-(4-phenoxyphenyl)piperidine] | 36 |  |
| O=C(NCCN1CCC(c2ccc(Oc3ccccc3)cc2)CC1)C1(c2ccccc2)CC1 [Compound 63, 1-[2-(1-phenyl-1-cyclopropylcarboxyamino)ethyl]-4-(4-phenoxyphenyl) piperidine] | 36.2 |  |
| C=C(c1ccccc1)N(C)C(=O)CN1CCC(c2ccc(Oc3ccccc3)cc2)CC1 [Compound 64, N-methyl-N-(1-phenylvinyl)-4-(4-phenoxyphenyl)-1-piperidinacetamide] | 31.5 |  |
| Fc1ccc(C(c2ccc(F)cc2)N2CCN(C/C=C/c3ccccc3)CC2)cc1 [Flunarizine] |  | side effect (dopamine D2 receptors): onset of symptoms of Parkinson's disease |

Reference: US5723475A, “Arylpiperidine and arylpiperazine derivatives and medicament containing the same” (Suntory Limited, priority 1995, dated 1998)
